We go through 2 compounds from patent publication US20170165322A1, “PEPTIDE AND SMALL MOLECULE AGONISTS OF EPHA AND THEIR USES IN DISEASE” (CASE WESTERN RESERVE UNIVERSITY, priority 2006, published 2017).

A value given as a limit tells only on which side of the number the result lay.

For one experiment, the system named is H460 xenograft. The experiment is described as follows: H460 xenograft growth in nude mice. In kind it is in vivo, human. The conditions noted are these: ephrin-A1-Fc 5 μg/g i.p. once every two days, five times, Alimta 150 mg/kg i.p. daily x 5 days. The procedure:
FIGS. 16(A-B) illustrate, A) Systemic treatment with ephrin-A1-Fc, but not control Fc, inhibited the growth of H1975 NSCLC xenografts. Eight-week old NCR nude mice were injected with 2×10^6 H1975 cells s.c. into the hind flanks. One week later, when the tumors had reached an average of about 100 mm3, mice (5/group) were injected i.p. twice a week with Fc or ephrin-A1-Fc at 2.5 or 5.0 μg/g. Equal volume of PBS was used as control. The day of the first treatment was designated as day 1. Rapid tumor growth necessitated termination of experiment at day 18. B) Comparison between ephrin-A1-Fc and Alimta for therapeutic efficacy on H460 xenografts. Cell implantation and treatment were the same as in (A). Alimta/Pemetrexed was injected at 150 mg/kg, i.p daily×5 days), or ephrin-A1-Fc (5 μg/g, mouse, i.p, once every two days, for five times). Note ephrin-A1-Fc treatment achieved better efficacy of tumor growth inhibition than Alimta, a new drug for lung cancer therapy in this cell type. * Indicates significant difference between PBS and ephrin-A1-treated groups, p<0.05.
We next compared ephrin-A1-Fc and Alimta/Pemetrexed for therapeutic efficacy against H460 xenograft. H460 cells are derived from a lung adenocarcinoma that express moderate levels of EphA2 (not shown). […]
(In general: A xenograft is tissue or cells of one species grown in another, often human tumour cells in immunodeficient mice.)

The next experiment deals with Akt. The experiment is described as follows: Immunoblot of p-Akt (Ser473) in DU145 cells. In kind it is cell-based, human. The settings on record: DU145-vector, then ephrin-A1 30 min. The procedure:
(§1) A Immunoblot analysis of the expression and tyrosine phosphorylation of EphA2 in DU145 cells. Parental DU145 cells were stably infected with a retroviral vector expressing wild-type EphA2 or empty vector. Clonal puromycin-resistant cells were isolated and expanded. The selected cells at 70-80% confluence were stimulated with 2 μg/ml ephrin-A1-Fc for the indicated times. The total cell lysates were resolved by SDS-PAGE and then probed with rabbit polyclonal anti-p-EphA/B and anti-EphA2 antibodies. […] The cells were treated as described in (A). Cell lysates were subject to immunoblot with the indicated antibodies.
(§2) DU145-vector cells were pretreated with okadaic acid (10, 50, and 250 nM) for 1 h, followed by stimulation with ephrin-A1-Fc for 30 min. The total cellular lysates were prepared and subjected to immunoblot analyses as described in FIG. 1 using the indicated antibodies. Notes: Okadaic acid inhibits only PP2A at low concentrations (<100 nM), but it inhibits both PP1 and PP2A at higher concentrations (>100 nM).
(§3) A. Cells were treated with rapamycin (1 nM) in the absence or presence of ephrin-A1 (2 μg/ml) for the indicated times Immunoblot analysis was performed as described above. […]
Background: A western blot detects proteins with antibodies after separation by electrophoresis.

The next experiment has as its system ERK1/2. The experiment is described as follows: Immunoblot of p-ERK1/2 in DU145 cells. In kind it is cell-based, human. The conditions noted are these: DU145-vector, okadaic acid pretreatment 1 h, then ephrin-A1 30 min. On the procedure:
as §1, §2, §3

Another experiment has as its system PP2A. The conditions noted are these: low concentrations; cited from earlier work.
The test system of another experiment is PP1. The conditions noted are these: higher concentrations; cited from earlier work.

Take `Nc1nc2[nH]cc(CCc3ccc(C(=O)N[C@@H](CCC(=O)O)C(=O)O)cc3)c2c(=O)[nH]1` [Alimta, Pemetrexed]: the “growth of H460 xenograft” value in the experiment with H460 xenograft was “minimal effects”.
With `C=C1[C@@H](O)[C@@H]2O[C@]3(CC[C@H](/C=C/[C@@H](C)[C@@H]4CC(C)=C[C@@]5(O[C@H](C[C@@](C)(O)C(=O)O)CC[C@H]5O)O4)O3)CC[C@H]2O[C@@H]1[C@@H](O)C[C@H](C)[C@H]1O[C@@]2(CCCCO2)CC[C@H]1C` [okadaic acid], the “effect on Akt dephosphorylation induced by EphA2 activation” value in the experiment with Akt (okadaic acid 250 nM pretreatment 1 h) is reported as “completely blocked”; with Akt (okadaic acid 10 and 50 nM pretreatment 1 h), “did not affect Akt dephosphorylation”. Further, in the experiment with ERK1/2, the “effects on ERK1/2 under the same conditions” value is on record as “not as pronounced”. In addition, the “concentrations at which only PP2A is inhibited” value with PP2A is under 100 nM. In addition, in the experiment on PP1, the “concentrations at which both PP1 and PP2A are inhibited” value is reported as over 100 nM.
